Measured values as given in patent publication US10494360B2, “Inhibitors of indoleamine 2,3-dioxygenase” (NETHERLANDS TRANSLATIONAL RESEARCH CENTER B.V., priority 2016, dated 2019).
Several values for one entry are separate records, joined by “and”; a condition that tells them apart may be missing. Equal values may be shown once.

Tests used:
IDO1 [1] = biological target: T1, IDO1 (Homo sapiens, UniProt P14902); test: Biochemical IDO1 assay (NFK GreenScreen); set-up: Recombinant full-length IDO1 (Seegers, N., et al.) and all other assay components were diluted in IDO1 reaction buffer; made in house; conditions: for relative activity of separated isomers: less active / most active isomer of the pair, assay not given; for IC50: recombinant full-length IDO1 25 nM, L-tryptophan 100 μM, NFK Green detection, read-out: IC50, inhibitory potency on IDO1
T1 sequence (P14902 whole entry, species assumed): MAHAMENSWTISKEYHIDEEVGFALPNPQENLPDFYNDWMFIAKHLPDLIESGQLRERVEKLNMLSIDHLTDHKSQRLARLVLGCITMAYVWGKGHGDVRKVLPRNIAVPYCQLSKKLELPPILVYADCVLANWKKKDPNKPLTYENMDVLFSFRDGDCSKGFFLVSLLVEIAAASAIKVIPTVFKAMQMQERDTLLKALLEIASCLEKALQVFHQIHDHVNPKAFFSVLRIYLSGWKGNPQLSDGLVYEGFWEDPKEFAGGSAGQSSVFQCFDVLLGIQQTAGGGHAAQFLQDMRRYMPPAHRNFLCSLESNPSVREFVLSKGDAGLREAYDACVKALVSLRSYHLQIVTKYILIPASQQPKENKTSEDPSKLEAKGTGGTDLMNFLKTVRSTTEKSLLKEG
Protocol: Inhibition of IDO1 activity can be measured by determining the enzymatic conversion of L-tryptophan into N-formylkynurenine (NFK) in a reaction mixture containing IDO1 and test compound. The formation of NFK can be detected directly by, for instance, high-performance liquid chromatography (HPLC) methods, or by intrinsic fluorescence.
Compounds were serially diluted in dimethylsulfoxide (DMSO) and finally in IDO1 reaction buffer, consisting of 50 mM NaH2PO4, pH7.0, supplemented with 0.05% Tween-20 (cat. No. P7949; Sigma Aldrich) and 1% glycerol. Recombinant full-length IDO1 (Seegers, N., et al.) and all other assay components were diluted in IDO1 reaction buffer. […] Subsequently, 10 μl of 0.4 mM of the substrate L-tryptophan was added, i.e., the final concentration of L-tryptophan was 100 μM. The DMSO concentration in the assay was 0.3%. […] Incubation was continued for 60 min at room temperature. Then, 10 μl of NFK Green™ (NTRC, Oss, The Netherlands) was added, the plate was sealed, and the reaction was developed for 3 hours at 37° C. To determine the production of N-formyl kynurenine (NFK), the seal was removed and fluorescence was read on an EnVision multimode reader (Perkin Elmer, Waltham, Mass., USA). IC50 were calculated using XLfit™ software (ID Business Solutions, Ltd., Surrey, U.K.).

IDO1 [2] = biological target: T1, IDO1; test: Cell-based assay for IDO1 in interferon-γ stimulated A-375 melanoma cells; conditions: interferon-γ stimulation, 48 hours, read-out: IC50, cell-based IDO1 (NFK levels)
Protocol: The biological activity of IDO1 inhibitors can be measured by applying above detection methods to cells that are treated with test compound. The expression of IDO1 can be induced in many different cell lines by stimulation with IFNγ (Takikawa, O., et al., J. Biol. Chem. 263: 2041; 1988; Seegers, et al.), or IDO1 can be expressed in cells that lack endogenous IDO1 by transfection of an expression vector containing IDO1 cDNA.
A-375 melanoma cells were purchased from LGC Standards GmbH (Wesel, Germany) and cultured in DMEM tissue culture medium (Life Technologies, Bleiswijk, The Netherlands), supplemented with 10% (v/v) bovine calf serum. Compounds were dissolved in DMSO and diluted in DMEM. Final DMSO concentration in the assay was 0.4% (v/v). Eight thousand cells per well in 35 μl were seeded in a black 384-well tissue plate (cat. No. 781086; Greiner Bio-One GmbH, Frickenhausen, Germany) and allowed to adhere by incubation at 37° C., 95% humidity, and 5% CO2 overnight. Then, 5 μl of compound solution was added to the cells 1 hour prior to stimulation with 5 μl of 500 ng/ml interferon-γ (R&D Systems, Minneapolis, Minn., USA) diluted in DMEM medium. At the same time, 5 μl of L-tryptophan in 20 mM Hepes buffer pH 7.4 was added. Incubation was continued for 48 hours. To determine NFK levels, 12 μl NFK Green™ (NTRC, Oss, The Netherlands) was added to each well, and the plate was sealed and incubated for 4 hours at 37° C. Fluorescence was measured on an EnVision multimode reader (Perkin Elmer, Waltham, Mass., USA). IC50 were calculated using XLfit™ software (ID Business Solutions, Ltd., Surrey, U.K.).

relative activity of separated isomers (IDO1 [1])	IC50 (IDO1 [1])	IC50 (IDO1 [2]) [µM]	Structure (SMILES)
most active isomer	≤ 1 µM	< 5	C[C@@H](c1ccccc1)N1CC(=O)N(O)C1c1cccc(Br)c1 (single isomer, unassigned) [Example 139b]
less active isomer	≤ 5 µM and 1 to 5 µM	< 5	C[C@@H](c1ccccc1)N1CC(=O)N(O)C1c1cccc(I)c1 (single isomer, unassigned) [Example 140a]
	≤ 1 µM	< 5	CC(c1c(F)cccc1F)N1CC(=O)N(O)C1c1cccc(Br)c1 (single isomer, unassigned) [Example 141b, 2-(3-Bromophenyl)-1-[1-(2,6-difluorophenyl)ethyl]-3-hydroxy-imidazolidin-4-one]
less active isomer	≤ 5 µM and 1 to 5 µM	< 5	O=C1CN(C(=O)c2c(F)cccc2F)C(c2cccc(Br)c2)N1O (single isomer, unassigned) [Example 142a, 2-(3-bromophenyl)-1-(2,6-difluorobenzoyl)-3-hydroxy-imidazolidin-4-one]
	≤ 5 µM and 1 to 5 µM	< 5	O=C1CN(C(=O)c2ccccc2Cl)C(c2cccc(C(F)(F)F)c2)N1O (stereo not drawn) [Example 2, 1-(2-Chlorobenzoyl)-3-hydroxy-2-[3-(trifluoromethyl)phenyl]imidazolidin-4-one]
	≤ 1 µM	< 5	O=C1CN(C(=O)c2c(F)cccc2Cl)C(c2cccc(C(F)(F)F)c2)N1O (stereo not drawn) [Example 3, 1-(2-Chloro-6-fluoro-benzoyl)-3-hydroxy-2-[3-(trifluoromethyl)phenyl]imidazolidin-4-one]
	≤ 1 µM	< 5	O=C1CN(C(=O)c2c(F)cccc2F)C(c2cccc(C(F)(F)F)c2)N1O (stereo not drawn) [Example 4, 1-(2,6-Difluorobenzoyl)-3-hydroxy-2-[3-(trifluoromethyl)phenyl]imidazolidin-4-one]
	≤ 5 µM and 1 to 5 µM	< 5	O=C1CN(C(=O)c2c(F)cccc2Cl)C(c2ccc(Cl)c(C(F)(F)F)c2)N1O (stereo not drawn) [Example 7, 1-(2-Chloro-6-fluoro-benzoyl)-2-[4-chloro-3-(trifluoromethyl)phenyl]-3-hydroxy-imidazolidin-4-one]
	≤ 1 µM	< 5	O=C1CN(C(=O)c2c(F)cccc2F)C(c2ccc(Cl)c(C(F)(F)F)c2)N1O (stereo not drawn) [Example 9, 2-[4-Chloro-3-(trifluoromethyl)phenyl]-1-(2,6-difluorobenzoyl)-3-hydroxy-imidazolidin-4-one]
	≤ 5 µM and 1 to 5 µM	< 5	O=C1CN(C(=O)c2ccccc2F)C(c2cccc(C(F)(F)F)c2)N1O (stereo not drawn) [Example 10, 1-(2-Fluorobenzoyl)-3-hydroxy-2-[3-(trifluoromethyl)phenyl]imidazolidin-4-one]
	≤ 1 µM	< 5	O=C1CN(C(=O)c2ccccc2F)C(c2cccc(Cl)c2)N1O (stereo not drawn) [Example 13, 2-(3-Chlorophenyl)-1-(2-fluorobenzoyl)-3-hydroxy-imidazolidin-4-one]
	≤ 1 µM	< 5	O=C1CN(C(=O)c2c(F)cccc2F)C(c2cccc(Cl)c2)N1O (stereo not drawn) [Example 15, 2-(3-Chlorophenyl)-1-(2,6-difluorobenzoyl)-3-hydroxy-imidazolidin-4-one]
	≤ 5 µM and 1 to 5 µM	< 5	O=C1CN(C(=O)c2ccccc2)C(c2cccc(Br)c2)N1O (stereo not drawn) [Example 17, 1-Benzoyl-2-(3-bromophenyl)-3-hydroxy-imidazolidin-4-one]
	≤ 5 µM and 1 to 5 µM	< 5	N#Cc1cc(F)c(C(=O)N2CC(=O)N(O)C2c2cccc(Br)c2)c(Cl)c1 (stereo not drawn) [Example 25, 4-[2-(3-Bromophenyl)-3-hydroxy-4-oxo-imidazolidine-1-carbonyl]-3-chloro-5-fluoro-benzonitrile]
	≤ 1 µM	< 5	O=C1CN(C(=O)c2cc(F)ccc2F)C(c2cccc(Br)c2)N1O (stereo not drawn) [Example 26, 2-(3-Bromophenyl)-1-(2,5-difluorobenzoyl)-3-hydroxy-imidazolidin-4-one]
	≤ 1 µM	< 5	O=C1CN(C(=O)c2c(F)cccc2F)C(c2cccc(Br)c2)N1O (stereo not drawn) [Example 27, 2-(3-Bromophenyl)-1-(2,6-difluorobenzoyl)-3-hydroxy-imidazolidin-4-one]
	≤ 1 µM	< 5	O=C1CN(C(=O)c2c(F)cccc2Cl)C(c2cccc(Br)c2)N1O (stereo not drawn) [Example 32, 2-(3-Bromophenyl)-1-(2-chloro-6-fluoro-benzoyl)-3-hydroxy-imidazolidin-4-one]
	≤ 1 µM	< 5	O=C1CN(C(=O)c2ccccc2F)C(c2cccc(Br)c2)N1O (stereo not drawn) [Example 33, 2-(3-Bromophenyl)-1-(2-fluorobenzoyl)-3-hydroxy-imidazolidin-4-one]
	≤ 1 µM	< 5	O=C1CN(C(=O)c2ccccc2Cl)C(c2cccc(Br)c2)N1O (stereo not drawn) [Example 34, 2-(3-Bromophenyl)-1-(2-chlorobenzoyl)-3-hydroxy-imidazolidin-4-one]
	≤ 1 µM	< 5	O=C1CN(C(=O)c2cccc(Cl)c2Cl)C(c2cccc(Br)c2)N1O (stereo not drawn) [Example 35, 2-(3-Bromophenyl)-1-(2,3-dichlorobenzoyl)-3-hydroxy-imidazolidin-4-one]
	≤ 5 µM and 1 to 5 µM	< 5	O=C1CN(C(=O)c2ccccc2)C(c2ccc(F)c(Br)c2)N1O (stereo not drawn) [Example 39, 1-Benzoyl-2-(3-bromo-4-fluoro-phenyl)-3-hydroxy-imidazolidin-4-one]
	≤ 5 µM and 1 to 5 µM	< 5	O=C1CN(C(=O)c2cccc(F)c2)C(c2ccc(F)c(Br)c2)N1O (stereo not drawn) [Example 43, 2-(3-Bromo-4-fluoro-phenyl)-1-(3-fluorobenzoyl)-3-hydroxy-imidazolidin-4-one]
	≤ 1 µM	< 5	O=C1CN(C(=O)c2c(F)cccc2F)C(c2ccc(F)c(Br)c2)N1O (stereo not drawn) [Example 44, 2-(3-Bromo-4-fluoro-phenyl)-1-(2,6-difluorobenzoyl)-3-hydroxy-imidazolidin-4-one]
	≤ 1 µM	< 5	O=C1CN(C(=O)c2c(F)cccc2Cl)C(c2ccc(F)c(Br)c2)N1O (stereo not drawn) [Example 45, 2-(3-Bromo-4-fluoro-phenyl)-1-(2-chloro-6-fluoro-benzoyl)-3-hydroxy-imidazolidin-4-one]
	≤ 1 µM	< 5	O=C1CN(C(=O)c2ccccc2F)C(c2ccc(F)c(Br)c2)N1O (stereo not drawn) [Example 46, 2-(3-Bromo-4-fluoro-phenyl)-1-(2-fluoro-benzoyl)-3-hydroxy-imidazolidin-4-one]
	≤ 1 µM	< 5	O=C1CN(C(=O)c2ccccc2F)C(c2ccc(F)c(Cl)c2)N1O (stereo not drawn) [Example 51, 2-(3-Chloro-4-fluoro-phenyl)-1-(2-fluorobenzoyl)-3-hydroxy-imidazolidin-4-one]
	≤ 1 µM	< 5	O=C1CN(C(=O)c2c(F)cccc2F)C(c2ccc(F)c(Cl)c2)N1O (stereo not drawn) [Example 52, 2-(3-Chloro-4-fluoro-phenyl)-1-(2,6-difluorobenzoyl)-3-hydroxy-imidazolidin-4-one]
	≤ 1 µM	< 5	O=C1CN(C(=O)c2c(F)cccc2Cl)C(c2ccc(F)c(Cl)c2)N1O (stereo not drawn) [Example 53, 1-(2-Chloro-6-fluoro-benzoyl)-2-(3-chloro-4-fluoro-phenyl)-3-hydroxy-imidazolidin-4-one]
	≤ 1 µM	< 5	O=C1CN(C(=O)c2ccc(F)cc2F)C(c2cccc(Br)c2)N1O (stereo not drawn) [Example 54, 2-(3-Bromophenyl)-1-(2,4-difluorobenzoyl)-3-hydroxy-imidazolidin-4-one]
	≤ 1 µM	< 5	O=C1CN(C(=O)c2ccc(F)cc2F)C(c2cccc(Cl)c2)N1O (stereo not drawn) [Example 59, 2-(3-Chlorophenyl)-1-(2,4-difluorobenzoyl)-3-hydroxy-imidazolidin-4-one]
